# Source: patent US20080064027A1, “TEL/Etv6-mediated inhibition of cell proliferation” (priority 2002, published 2008)
# Where two headings read alike, the source gives them in different places.
# Key:
# A375-Stat3-ER cells [1] = settings: for reduction of A375-Stat3ER cell number: 3 days
# Protocol: In order to evaluate the role of Stat3 in A375 cell proliferation, A375-Stat3-ER cells were grown in the presence of OSM or 4HT and cell number determined over 3 days.
# A375-Stat3-ER cells [2] = settings: for effect on cell cycle profile: A375-Stat3-ER cells
# Protocol: In brief, cells were harvested at the indicated times (24, 48 and 72 h) washed three times with ice-cold PBS and resuspended in propidium iodide buffer (1 mM sodium citrate (pH 4.0), 1.5 mM NaCl, 5 mM EDTA, 5 mM EGTA, 0.1% NP40, 4 mg/ml propidium iodide and 80 mg/ml of RNase A). After 30 min incubation in the dark on ice, cell cycle distribution was measured with a Becton Dickinson FACS can flow cytometer.
# parent A375 cells = test: Proliferation of parent A375 cells; settings: 4HT 1 microM
# C/EBPdelta mRNA = test: C/EBPdelta expression (quantitative PCR); format: cell-based; settings: quantitative PCR
# Protocol: A LacZ siRNA was used as control. The designed RNA oligonucleotides were ‘blasted’ against the GENBANK/EMBL databank to ensure gene specificity. The RNA oligonucleotides were obtained commercially. Transfection with expression vectors was carried out 1 day after the siRNA transfection using Effectene.
# TEL [3] = test: TEL protein level by Western blotting; format: cell-based; settings: for TEL isoforms (TEL and TEL43) expression: ASER cells
# Protocol: Protein analysis was carried out by Western blotting. In brief, cells were harvested in NP40 extraction buffer (50 mM Tris (pH 7.5), 1 mM EGTA, 5 mM EDTA, 120 mM NaCl, 1% NP40, 2 mM sodium orthovanadate, 50 mM sodium fluoride, 20 mM ? -glycerophosphate, 10 μg/ml leupeptin, 10 μg/ml aprotinin, and 0.5 mM phenylmethylsulfonyl fluoride) for 5 min on ice. The lysates were clarified by centrifugation and protein concentrations were determined using the Bio-Rad protein assay reagent (Bio-Rad Laboratories Gmbh, Munich, Germany). For immunoprecipitaton, equal amounts of proteins were incubated with Stat3 (C-20) from Santa Cruz Biotechnology (Santa Cruz, Calif.) for 1 hr. Following SDS-polyacrylamide gel eletrophoresis (SDS-PAGE), proteins were blotted onto polyvinylidene difluoride membranes (Boehringer Mannheim, Mannheim, Germany). After blocking with 10% horse serum (Life Technologies, Inc.) in 50 mM Tris pH 7.5, 150 mM NaCl, 0.05% Tween 20, filters were probed with specific antibodies; c-TEL, Stat3 (C-20) from Santa Cruz Biotechnology (Santa Cruz, Calif.), phospho-Stat3 (Tyr 705) from Cell Signaling Technology (Beverly, Mass.). Proteins were visualized with peroxidase-coupled secondary antibodies using the enhanced chemiluminescence detection system (Amersham Pharmacia Biotech, Little Chalfont, United Kingdom).
# [4] = tested on: Stat3 transcriptional activity; test: APRE-driven luciferase reporter assay; format: cell-based; settings: for Relative Luciferase Activity: 24 hours, control = 1; for Stat3-dependent transcription of luciferase, increase over control: Stat3-ER-expressing A375, without TEL siRNA
# Source text: Luciferase assays are used to verify that the Stat3-ER construct is transcriptionally active. For this purpose, a luciferase reporter gene driven by the acute-phase response element (APRE) of the alpha 2-macroglobulin gene, a target for Stat1 and Stat3, was used.
# Cells (2×10^6 cells/6 well dish) were transfected with a reporter plasmid containing four copies of acute phase responsible element (APRE) upstream of the minimal junB promoter linked to the luciferase gene (T Hirano, EMBO Journal, 1996, 15, 3651-3658), together with the internal control plasmid pRL-SV40 from Promega (Madison, Wis.). Twenty-four hours after the transfection, cells were either left unstimulated or stimulated with OSM (PeproTechEC, London, United Kingdom), 4-hydroxytamoxifen (4HT; Sigma, St. Louis, Mo.) or a combination of 4HT/OSM for 24 hours. The preparation of cell extracts and measurement of luciferase activities were carried out using the Dual-Luciferase reporter assay system from Promega (Madison, Wis.) in an Autolumat LB 953 (Berthold Technologies, Wildbad, Germany). Changes in firefly luciferase activity were expressed relative to Renilla luciferase activity in the same sample.
# TEL [5] = test: TEL expression in human cancer cell lines; format: cell-based
# Source text: TEL is usually expressed as two protein isoforms corresponding to initiation of TEL mRNA translation at ATG codon 1 and 43 (TEL and TEL43). […] To ascertain if TEL is a natural target of Stat3, we examined its expression in human cancer cell lines in response to OSM or IL-6. […] However, TEL expression was unchanged in other cell lines, including the prostate cancer cells PC3 and LNCaP and MDA-MB-468 breast cancer cells, even though it was expected that Stat3 is activated in each of these cell lines by IL-6/OSM treatment.
# Stat3 = test: TEL-Stat3 interaction, immunoprecipitation from nuclear extracts; format: binding
# Protocol: Since the TEL DNA-binding domain is not required for repression of Stat3 activity, this Example tests the possibility that TEL interacts directly with Stat3. Extracts from nuclear-enriched fractions were prepared from control or OSM-stimulated A375 cells. […] Endogenous TEL was present in Stat3 immunoprecipitates and the levels of TEL associating with Stat3 increased in OSM-treated compared to control-treated nuclear extracts. Conversely, Stat3 is present in a TEL-containing complex, pulled down through an immobilized GGM-containing oligonucleotide, which is a binding site for TEL.
# [6] = 24 h, 4HT 1 microM, OSM 100 ng/ml, control 1.48
# [7] = 48 h, 4HT 1 microM, OSM 100 ng/ml, control 4.33
# [8] = 72 h, 4HT 1 microM, OSM 100 ng/ml, control 7.83
# [9] = 4HT 1 microM, Stat3-ER expressing A375 cells
# [10] = nuclear lysates of OSM-stimulated A375 cells
compound,measurement,setting,value
"CCC(=C(c1ccc(O)cc1)c1ccc(OCCN(C)C)cc1)c1ccccc1 [4HT, 4-hydroxytamoxifen, reference compound]",Number of Cells,A375-Stat3-ER cells [1]; 0 h (start of treatment),0.8 ×10^5
same,reduction of A375-Stat3ER cell number,"A375-Stat3-ER cells [1]; 4HT 1 microM, OSM 100 ng/ml",about 40%
same,Number of Cells,A375-Stat3-ER cells [1]; [6],1.49 ×10^5
same,Number of Cells,A375-Stat3-ER cells [1]; [7],3.60 ×10^5
same,Number of Cells,A375-Stat3-ER cells [1]; [8],4.44 ×10^5
same,Apoptotic cells,A375-Stat3-ER cells [2]; 24 h,<1%
same,G1 (change in percentage of cells),A375-Stat3-ER cells [2]; 24 h,+1%
same,G2/M (change in percentage of cells),A375-Stat3-ER cells [2]; 24 h,+2%
same,S (change in percentage of cells),A375-Stat3-ER cells [2]; 24 h,−3%
same,Apoptotic cells,A375-Stat3-ER cells [2]; 48 h,<1%
same,G2/M (change in percentage of cells),A375-Stat3-ER cells [2]; 48 h,−6%
same,S (change in percentage of cells),A375-Stat3-ER cells [2]; 48 h,+1%
same,G1 (change in percentage of cells),A375-Stat3-ER cells [2]; 72 h,−1%
same,G2/M (change in percentage of cells),A375-Stat3-ER cells [2]; 72 h,+1%
same,S (change in percentage of cells),A375-Stat3-ER cells [2]; 72 h,0%
same,Apoptotic cells,A375-Stat3-ER cells [2]; 72 h (3 days),<1%
same,effect on cell cycle profile,A375-Stat3-ER cells [2],only marginally affected
same,entry into S phase after release of cells synchronized in G1,A375-Stat3-ER cells [2]; A375 Stat3-ER cells,delayed relative to control cells
same,proliferation of the parent A375 cells,parent A375 cells,does not affect proliferation
same,C/EBPdelta mRNA,C/EBPdelta mRNA,significantly increased
same,TEL protein level upon treatment,TEL [3]; Stat3-ER-expressing A375 cells,strongly increased
same,TEL isoforms (TEL and TEL43) expression,TEL [3]; after 24 hrs of treatment,strongly increased
same,TEL isoforms (TEL and TEL43) expression,TEL [3]; within 8 hrs of 4HT addition,significantly increased
same,Relative Luciferase Activity,[4]; [9],29
same,stimulation of transcription from the APRE,[4]; [9],more efficiently than 100 ng/ml OSM
same,"Stat3-dependent transcription of luciferase, increase over control",[4],about 6 fold
oncostatin M [OSM],TEL expression,"TEL [5]; PC3, LNCaP prostate cancer cells and MDA-MB-468 breast cancer cells",unchanged
same,TEL expression,"TEL [5]; T47D and SKBr-3 breast cancer cells, DU145 prostate carcinoma cells, HepG2 hepatoma-derived cells",significantly increased
same,Number of Cells,A375-Stat3-ER cells [1]; 0 h (start of treatment),0.8 ×10^5
same,reduction of A375-Stat3ER cell number,"A375-Stat3-ER cells [1]; 4HT 1 microM, OSM 100 ng/ml",about 40%
same,Number of Cells,A375-Stat3-ER cells [1]; [6],1.15 ×10^5
same,Number of Cells,A375-Stat3-ER cells [1]; [7],2.58 ×10^5
same,Number of Cells,A375-Stat3-ER cells [1]; [8],4.35 ×10^5
same,levels of TEL associating with Stat3 in Stat3 immunoprecipitates,Stat3; OSM-treated compared to control-treated nuclear extracts,increased
same,nuclear Stat3 levels,Stat3; [10],expected increase in Stat3 levels
same,nuclear content of TEL,Stat3; [10],not affected
same,effect on cell cycle profile,A375-Stat3-ER cells [2],little effect
same,"activation of Stat3 transcriptional activity among IL-6 family members tested (IL-6, LIF)",[4]; A375 cells,most potent activator
same,Relative Luciferase Activity,"[4]; OSM 1 ng/ml, Stat3-ER expressing A375 cells",3
same,Relative Luciferase Activity,"[4]; OSM 10 ng/ml, Stat3-ER expressing A375 cells",9
same,Relative Luciferase Activity,"[4]; OSM 100 ng/ml, Stat3-ER expressing A375 cells",18
same,"Stat3-dependent transcription of luciferase, increase over control",[4],about 9 fold
